The test system of assay [1] is dengue virus type 1. In words: inhibition of replication of dengue virus type 1. The assay is classed as cell-based.
The test system of assay [2] is dengue virus type 4. In words: inhibition of replication of dengue virus type 4. In kind it is cell-based.
In assay [3] the test system is DENV 2. In words: cell poisoning experiments: inhibition of DENV 2 replication. In kind it is cell-based, dengue virus.
Assay [4] deals with T1, NS5 (Dengue virus type 2, UniProt P14340).
T1 construct: His6 (C); made in house; host or cells: E. coli BL21 (DE3), pET 30a/NS5
In words: affinity to full-length DENV NS5 recombinant protein (phage display peptide library screening). The assay is classed as binding, DENV-2. Here is the method:
1) The protein solution is diluted with 0.1 M NaHCO3 to 100 μg/mL. Each time, 0.7 mL of the protein solution is added dropwise to a (φ35 mm polyethylene culture dish, which is gently shaken to soak the dish, which is then coated overnight at 4° C., The coating solution is aspirated and discarded; 2 mL of a blocking solution is added, and left at 4° C. for 2 h; the blocking solution is discarded, and the plate is tap-dried; the plate is washed 6 times with TBST (TBS+0,1%[V/V]Tween−20), and tap-dried each time. […]
3) The eluted phage is added to 10 mL of the host bacterial Tet-LB culture solution (OD600 to 0.5) and then amplified; after 5 hours of culture, the culture solution is collected to purify the phage, and used for the next round of screening after the titer is measured. […]

The test system of assay [5] is dengue virus. In words: inhibition of dengue virus replication (serotype not given). The following applies: serotype not stated. In kind it is cell-based.
Assay [6] has as its system dengue virus type 3. In words: inhibition of replication of dengue virus type 3. In kind it is cell-based.

With KHGHHRH [Lys-His-Gly-His-His-Arg-His], the “inhibitory effect on the replication of dengue virus type 1” value in assay [1] is on record as “significant inhibitory effect”. Also, the “inhibitory effect on the replication of dengue virus type 4” value in assay [2] is “significant inhibitory effect”. For the same substance, the “inhibitory effect on the replication of DENV 2 virus” value in assay [3] is “significant inhibitory effect”. The “affinity for NS5” value in assay [4] is given as “high specific affinity”. Moreover, the “inhibitory effect on dengue virus replication” value was “highly effective inhibitory effect” in assay [5] and “effectively inhibit” in assay [5] (listed as oligopeptide). Besides, the “inhibitory effect on the replication of dengue virus type 3” value in assay [6] is “significant inhibitory effect”.

The values above are taken from patent US20210040153A1, “OLIGOPEPTIDE HAVING DENGUE VIRUS REPLICATION INHIBITION FUNCTION AND APPLICATION THEREOF” (priority 2018, published 2021).
